Our source for the IC50 values is patent publication US11447466B2, “Substituted indole compounds useful as inhibitors of TLR7/8/9” (BRISTOL-MYERS SQUIBB COMPANY, priority 2017, dated 2022).

Common to all, as to type: cell-based
One assay concerns the target T1, human TLR9 (Homo sapiens, UniProt Q9NR96).
T1 construct: host or cells: HEK-Blue cells
T1 sequence (Q9NR96 26-1032): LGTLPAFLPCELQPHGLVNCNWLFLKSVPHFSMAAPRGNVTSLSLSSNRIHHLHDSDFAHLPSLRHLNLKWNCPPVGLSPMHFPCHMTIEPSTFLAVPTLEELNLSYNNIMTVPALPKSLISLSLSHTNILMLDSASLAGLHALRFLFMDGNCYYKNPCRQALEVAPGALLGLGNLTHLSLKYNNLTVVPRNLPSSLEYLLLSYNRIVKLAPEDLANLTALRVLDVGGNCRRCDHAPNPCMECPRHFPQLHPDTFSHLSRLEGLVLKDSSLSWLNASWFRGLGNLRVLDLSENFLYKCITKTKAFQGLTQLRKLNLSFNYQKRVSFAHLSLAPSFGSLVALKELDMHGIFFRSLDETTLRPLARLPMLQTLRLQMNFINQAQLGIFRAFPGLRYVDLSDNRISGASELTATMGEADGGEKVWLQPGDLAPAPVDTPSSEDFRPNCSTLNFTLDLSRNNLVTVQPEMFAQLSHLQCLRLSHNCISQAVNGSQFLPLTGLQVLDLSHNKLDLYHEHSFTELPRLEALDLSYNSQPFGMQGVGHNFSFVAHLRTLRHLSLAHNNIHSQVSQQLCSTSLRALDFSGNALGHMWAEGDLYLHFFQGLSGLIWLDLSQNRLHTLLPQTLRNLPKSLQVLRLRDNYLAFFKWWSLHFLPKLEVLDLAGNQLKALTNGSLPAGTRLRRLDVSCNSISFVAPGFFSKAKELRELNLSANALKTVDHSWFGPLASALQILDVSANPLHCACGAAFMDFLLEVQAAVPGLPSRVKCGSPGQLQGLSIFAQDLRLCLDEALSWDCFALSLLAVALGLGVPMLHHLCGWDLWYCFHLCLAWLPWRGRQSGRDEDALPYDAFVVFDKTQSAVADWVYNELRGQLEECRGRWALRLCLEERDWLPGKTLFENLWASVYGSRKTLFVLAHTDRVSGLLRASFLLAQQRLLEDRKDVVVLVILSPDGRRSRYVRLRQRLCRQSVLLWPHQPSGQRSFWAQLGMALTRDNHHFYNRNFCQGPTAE
The assay is described as follows: TLR9 inhibition reporter assay (HEK-Blue SEAP reporter, ODN2006 stimulation). The conditions noted are these: HEK-Blue cells overexpressing human TLR9, SEAP reporter, ODN2006 5 nM, 22 hour incubation. In a few lines:
(§1)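 Dose–response from 0.05 nM to 50 μM was run in HEK-Blue human TLR7, TLR8 and TLR9 reporter cells. After 30 min at room temperature with compound, ligand was added (TLR7 gardiquimod 7.5 μM; TLR8 R848 15.9 μM; TLR9 ODN2006 5 nM) and SEAP measured next day, at 22 h.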
For orientation: In a reporter assay the amount or activity of a reporter protein is the signal.

The target of another assay is T2, human TLR8 (Homo sapiens, UniProt Q9NR97).
T2 construct: host or cells: HEK-Blue cells
T2 sequence (Q9NR97 27-1041): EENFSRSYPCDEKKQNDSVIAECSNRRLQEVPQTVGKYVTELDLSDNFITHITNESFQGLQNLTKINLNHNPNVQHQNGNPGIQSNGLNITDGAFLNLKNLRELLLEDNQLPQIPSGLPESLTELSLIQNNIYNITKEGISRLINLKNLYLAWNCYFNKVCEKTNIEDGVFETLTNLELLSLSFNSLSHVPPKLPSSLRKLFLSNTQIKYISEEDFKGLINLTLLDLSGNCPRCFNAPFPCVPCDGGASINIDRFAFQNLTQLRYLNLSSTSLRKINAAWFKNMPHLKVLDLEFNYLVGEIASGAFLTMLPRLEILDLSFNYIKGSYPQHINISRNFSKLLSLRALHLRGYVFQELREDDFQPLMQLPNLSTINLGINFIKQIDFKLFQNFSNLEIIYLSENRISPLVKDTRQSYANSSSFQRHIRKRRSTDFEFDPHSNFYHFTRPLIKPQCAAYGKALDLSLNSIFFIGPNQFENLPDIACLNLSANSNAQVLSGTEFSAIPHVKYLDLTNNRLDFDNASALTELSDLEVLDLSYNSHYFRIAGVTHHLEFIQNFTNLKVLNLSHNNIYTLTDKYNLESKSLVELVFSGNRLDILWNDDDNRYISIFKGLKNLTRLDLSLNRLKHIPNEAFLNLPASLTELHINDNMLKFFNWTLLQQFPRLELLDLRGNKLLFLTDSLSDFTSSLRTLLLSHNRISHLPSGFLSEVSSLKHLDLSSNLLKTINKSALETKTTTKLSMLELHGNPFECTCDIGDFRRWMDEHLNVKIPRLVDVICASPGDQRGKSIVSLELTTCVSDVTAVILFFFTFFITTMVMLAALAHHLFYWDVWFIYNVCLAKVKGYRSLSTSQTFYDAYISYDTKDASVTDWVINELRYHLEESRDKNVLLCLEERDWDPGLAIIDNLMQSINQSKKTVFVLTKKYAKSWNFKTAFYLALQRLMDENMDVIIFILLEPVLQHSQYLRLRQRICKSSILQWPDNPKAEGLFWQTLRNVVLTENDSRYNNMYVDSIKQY
As to the kind of experiment: TLR8 inhibition reporter assay (HEK-Blue SEAP reporter, R848 stimulation). The conditions noted are these: HEK-Blue cells overexpressing human TLR8, SEAP reporter, R848 15.9 μM, 22 hour incubation. In a few lines: as §1

For another assay, the target named is T3, human TLR7 (Homo sapiens, UniProt Q9NYK1).
T3 construct: host or cells: HEK-Blue cells
T3 sequence (Q9NYK1 27-1049): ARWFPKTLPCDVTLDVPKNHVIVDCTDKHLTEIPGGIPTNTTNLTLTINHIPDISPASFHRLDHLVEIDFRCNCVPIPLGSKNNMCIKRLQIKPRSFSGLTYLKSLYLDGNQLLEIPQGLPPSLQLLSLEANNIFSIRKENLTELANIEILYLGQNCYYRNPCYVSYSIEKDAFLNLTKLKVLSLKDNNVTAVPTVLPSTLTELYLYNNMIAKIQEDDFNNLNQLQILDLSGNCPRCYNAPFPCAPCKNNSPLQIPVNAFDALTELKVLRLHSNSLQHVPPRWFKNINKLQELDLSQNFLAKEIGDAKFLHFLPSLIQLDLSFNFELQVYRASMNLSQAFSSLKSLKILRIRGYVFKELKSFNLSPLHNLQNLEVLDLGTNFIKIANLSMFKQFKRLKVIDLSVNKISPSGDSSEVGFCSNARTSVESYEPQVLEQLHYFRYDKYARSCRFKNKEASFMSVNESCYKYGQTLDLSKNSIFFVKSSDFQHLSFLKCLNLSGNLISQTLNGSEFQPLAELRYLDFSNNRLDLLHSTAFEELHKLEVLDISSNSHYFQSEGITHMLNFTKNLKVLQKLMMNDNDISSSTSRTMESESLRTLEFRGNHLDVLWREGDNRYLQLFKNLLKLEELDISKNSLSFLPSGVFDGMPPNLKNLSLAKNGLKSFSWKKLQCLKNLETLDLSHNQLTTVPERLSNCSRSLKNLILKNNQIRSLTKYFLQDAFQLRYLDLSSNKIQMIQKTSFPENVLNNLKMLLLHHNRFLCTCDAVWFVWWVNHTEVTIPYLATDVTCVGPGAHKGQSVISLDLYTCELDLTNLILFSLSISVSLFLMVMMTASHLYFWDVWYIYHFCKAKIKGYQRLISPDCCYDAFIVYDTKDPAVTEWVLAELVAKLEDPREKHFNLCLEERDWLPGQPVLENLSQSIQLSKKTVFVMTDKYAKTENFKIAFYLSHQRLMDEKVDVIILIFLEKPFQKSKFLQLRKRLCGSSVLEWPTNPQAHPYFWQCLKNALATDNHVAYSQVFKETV
The assay is described as follows: TLR7 inhibition reporter assay (HEK-Blue SEAP reporter, gardiquimod stimulation). The conditions noted are these: HEK-Blue cells overexpressing human TLR7, SEAP reporter, gardiquimod 7.5 μM, 22 hour incubation. In a few lines: as §1

Where only a bound is given, the exact number is not on record here.

Regarding `Cc1cc(-c2[nH]c3ccc(C4CCN(CC(O)C(C)(C)C)CC4)cc3c2C(C)C)cn(C)c1=O` (stereo not drawn) [Example 325, 5-(5-(1-(2-hydroxy-3,3-dimethylbutyl)piperidin-4-yl)-3-isopropyl-1H-indol-2-yl)-1,3-dimethylpyridin-2(1H)-one], the IC50 (usually the concentration needed to halve the response being measured) at human TLR9 was 3 µM; on human TLR8, 0.0043 µM; against human TLR7 it was 0.0087 µM.
Consider `COc1cc(-c2[nH]c3ccc(C4CCNCC4)cc3c2C(C)C)c(C)n(C)c1=O` [Example 28, 5-(3-isopropyl-5-(piperidin-4-yl)-1H-indol-2-yl)-3-methoxy-1,6-dimethylpyridin-2(1H)-one], for which the IC50 is 1.21 µM on human TLR9, 0.174 µM at human TLR8 and 0.207 µM against human TLR7.
The corresponding values for `CC(C)c1c(-c2cn(C)c(=O)cn2)[nH]c2ccc(C3CCNCC3)cc12` [Example 4, 5-(3-isopropyl-5-(piperidin-4-yl)-1H-indol-2-yl)-1-methylpyrazin-2(1H)-one] are 0.756 µM, 0.0384 µM and 0.0828 µM.
Consider `Cc1c(-c2[nH]c3ccc(C4CCN(C5COC5)CC4)cc3c2C(C)C)cc(C#N)c(=O)n1C` [Example 219, 5-(3-isopropyl-5-(1-(oxetan-3-yl)piperidin-4-yl)-1H-indol-2-yl)-1,6-dimethyl-2-oxo-1,2-dihydropyridine-3-carbonitrile], for which the IC50 was 22.3 µM on human TLR9, 0.0091 µM at human TLR8 and 0.048 µM against human TLR7.
On the same counts, the results for `CNC(=O)CN1CCC(c2ccc3[nH]c(-c4cc(C#N)c(=O)n(C)c4C)c(C(C)C)c3c2)CC1` [Example 144, 2-(4-(2-(5-cyano-1,2-dimethyl-6-oxo-1,6-dihydropyridin-3-yl)-3-isopropyl-1H-indol-5-yl)piperidin-1-yl)-N-methylacetamide] are 11.4 µM, 0.0047 µM and 0.0599 µM.
Take `Cc1cc(-c2[nH]c3ccc(C4CCN(C(=O)C(C)(C)N)CC4)cc3c2C(C)C)cn(C)c1=O` [Example 296, 5-(5-(1-(2-amino-2-methylpropanoyl)piperidin-4-yl)-3-isopropyl-1H-indol-2-yl)-1,3-dimethylpyridin-2(1H)-one]: the figures for the IC50 on human TLR9, against human TLR8 and against human TLR7 were 4.31 µM, 0.003 µM and 0.0011 µM, respectively.
Consider `Cc1c(-c2[nH]c3ccc(C4CCN(CCCC(F)(F)F)CC4)cc3c2C(C)C)cn(C)c(=O)c1Cl` [Example 105, 3-chloro-5-(3-isopropyl-5-(1-(4,4,4-trifluorobutyl)piperidin-4-yl)-1H-indol-2-yl)-1,4-dimethylpyridin-2(1H)-one], for which the results for the IC50 at human TLR9, at human TLR8 and against human TLR7 were 5.52 µM, 0.0107 µM and 0.0051 µM, respectively.
On to `Cc1cc(-c2[nH]c3ccc(C4CCN(Cc5ncnn5C)CC4)cc3c2C(C)C)cn(C)c1=O` [Example 198, 5-(3-isopropyl-5-(1-((1-methyl-1H-1,2,4-triazol-5-yl)methyl)piperidin-4-yl)-1H-indol-2-yl)-1,3-dimethylpyridin-2(1H)-one], for which the IC50 against human TLR9 is no less than 50 µM; against human TLR8 it was 0.0134 µM; against human TLR7, 0.0091 µM.
On the same counts, the results for `Cc1cc(-c2[nH]c3ccc(C4CCN(C)CC4)cc3c2C(C)C)nn(C)c1=O` [Example 191, 6-(3-isopropyl-5-(1-methylpiperidin-4-yl)-1H-indol-2-yl)-2,4-dimethylpyridazin-3(2H)-one] are 8.84 µM, 0.0215 µM and 0.0069 µM.
The corresponding values for `Cc1cc(-c2[nH]c3ccc(C4CCN(CCCC(F)(F)F)CC4)cc3c2C(C)C)cn(CC(C)C)c1=O` [Example 110, 1-isobutyl-5-(3-isopropyl-5-(1-(4,4,4-trifluorobutyl)piperidin-4-yl)-1H-indol-2-yl)-3-methylpyridin-2(1H)-one] are 5.26 µM, 0.163 µM and 0.0561 µM.
